# Structures can show the parent of a compound that is named as a salt. Where two headings read alike, the source gives them in different places.
# System: spiral strips of the arteria pulmonalis of the guinea pig
# Assay: relaxing effect on spiral strips of guinea pig arteria pulmonalis, contraction elicited by CaCl2 after depolarization with potassium (modified Godfraind and Kaba / Schuman)
# Format: cell-based
# Conditions: Cavia porcellus, read-out: IC50 (concentration of the test substance which inhibits the contraction by 50%)
# Procedure: For this, spiral strips of the arteria pulmonalis of the guinea pig are depolarized,following equilibration in calcium-free Tyrode solution, with 40 mmol/l potassium. Addition of 0.5 mmol/l CaCl2 then elicits a contraction. The relaxing effect of the test substance is determined by adding it cummulatively.
# [1] = depolarized with 40 mmol/l potassium, contraction by 0.5 mmol/l CaCl2, cumulative addition, average value from 4 to 6 vessel strips
Compound,IC50 [1] [µM],IC50 [µM]
"CC(C)NC(=O)c1c(CO)no[n+]1[O-] [Compound 1 I, 4-Hydroxymethyl-N-isopropyl-2-oxyfurazan-3-carboxamide]",8,
"NC(=O)c1c(CO)no[n+]1[O-] [Compound 3 I, 4-Hydroxymethyl-2-oxyfurazan-3-carboxamide]",12,
"CNC(=O)c1c(CO)no[n+]1[O-] [Example 4 I, 4-Hydroxymethyl-N-methyl-2-oxyfurazan-3-carboxamide]",7.3,
"O=C(NCc1cccnc1)c1c(CO)no[n+]1[O-] [Example 8, 4-Hydroxymethyl-N-(3-pyridylmethyl)-2-oxyfurazan-3-carboxamide hydrochloride]",8,
"COCCNC(=O)c1c(CO)no[n+]1[O-] [Example 18, 4-Hydroxymethyl-N-(2-methoxyethyl)-2-oxyfurazan-3-carboxamide]",8,
"C[C@H](NC(=O)c1c(CO)no[n+]1[O-])c1ccccc1 [Example 23, 4-Hydroxymethyl-N-((S)-1-phenylethyl)-2-oxyfurazan-3-carboxamide]",15,
"O=[N+]([O-])O[C@@H]1CO[C@H]2[C@@H]1OC[C@@H]2O [Isosorbide 5-mononitrate, isosorbide 5-mononitrate, reference compound]",,> 100

# More lines, main results first:
IC50 [1] [µM],Compound,IC50 [µM]
2,"C[C@@H](NC(=O)c1c(CO)no[n+]1[O-])c1ccccc1 [Example 24, 4-Hydroxymethyl-N-((R)-1-phenylethyl)-2-oxyfurazan-3-carboxamide]",
11,"NS(=O)(=O)c1ccc(CCNC(=O)c2c(CO)no[n+]2[O-])cc1 [Example 26, 4-Hydroxymethyl-N-[2-(4-sulphamoylphenyl)-ethyl]-2-oxyfurazan-3-carboxamid]",
300,"CCOC(=O)[N-]c1cn(N2CCOCC2)n[o+]1 [Molsidomine, molsidomine, reference compound]",

# — patent US5486531A, “Hydroxymethylfurazancarboxylic acid derivatives” (Cassella Aktiengesellschaft, priority 1993, dated 1996)
